Test results as given in patent US20090099167A1, “Organic compounds” (Novartis Institutes for Biomedical Research, priority 2004, published 2009).

Key:
[1] = target: T1, human RET (Homo sapiens, UniProt P07949); assay: RET kinase inhibition, GST-wtRET or GST-RET-Men2B, 33P incorporation into poly(Glu,Tyr); type: biochemical; settings: Table 4
T1 construct: fused on or other part: N-terminal GST tag (pFB-GSTX3 vector)
Description: The inhibition of RET is measured as follows: The baculovirus donor vector pFB-GSTX3 is used to generate a recombinant baculovirus that expresses the amino acid region 658-1072 (Swiss prot No. Q9BTB0) of the intra-cytoplasmic kinase domain of human RET-Men2A which corresponds to the wild-type kinase domain of RET (wtRET) and RET-Men2B, which differs from the wtRET by the activating mutation in the activation loop M918T. The coding sequences for the cytoplasmic domain of wtRET and RET-Men2B are amplified by PCR from the plasmids pBABEpuro RET-Men2A and pBABEpuro RET-Men2B. The amplified DNA fragments and the pFB-GSTX3 vector are made compatible for ligation by digestion with SalI and KpnI. Ligation of these DNA fragments results in the baculovirus donor plasmid pFB-GX3-RET-Men2A and pFB-GX3-RET-Men2B, respectively. Production of virus: Transfer vectors containing the kinase domains are transfected into the DH10Bac cell line (GIBCO) and plated on selective agar plates. Colonies without insertion of the fusion sequence into the viral genome (carried by the bacteria) are blue. Single, white colonies are picked and viral DNA (bacmid) are isolated from the bacteria by standard plasmid purification procedures. Sf9 cells or Sf21 (American Type Culture Collection) cells are then transfected in 25 cm^2 flasks with the viral DNA using Cellfectin reagent. Determination of small scale protein expression in Sf9 cells: Virus-containing media is collected from the transfected cell culture and used for infection to increase its titer. Virus-containing media obtained after two rounds of infection is used for large-scale protein expression. For large-scale protein expression 100 cm^2 round tissue culture plates are seeded with 5×10^7 cells/plate and infected with 1 mL of virus-containing media (approximately 5 MOIs). After 3 days, the cells are scraped off the plate and centrifuged at 500 rpm for 5 minutes. Cell pellets from 10-20, 100 cm^2 plates, are re-suspended in 50 mL of ice-cold lysis buffer (25 mM tris-HCl, pH 7.5, 2 mM EDTA, 1% NP-40, 1 mM DTT, 1 mM P MSF). The cells are stirred on ice for 15 minutes and then centrifuged at 5,000 rpms for 20 minutes. Purification of GST-tagged proteins: The centrifuged cell lysate is loaded onto a 2 mL glutathione-sepharose column (Pharmacia) and is washed 3× with 10 mL of 25 mM tris-HCl, pH 7.5, 2 mM EDTA, 1 mM DTT, 200 mM NaCl. The GST-tagged proteins are then eluted by 10 applications (1 mL each) of 25 mM tris-HCl, pH 7.5, 10 mM reduced-glutathione, 100 mM NaCl, 1 mM DTT, 10% glycerol and stored at −70° C. Measure of enzyme activity: Tyrosine protein kinase assays with either purified GST-wtRET or GST-RET-Men2B protein are carried out in a final volume of 30 μL containing 15 ng of either GST-wtRET or GST-RET-Men2B protein, 20 mM tris-HCl, pH 7.5, 1 mM MnCl2, 10 mM MgCl2, 1 mM DTT, 3 μg/mL poly(Glu,Tyr) 4:1, 1% DMSO, 2.0 μM ATP (γ-[^33P]-ATP 0.1 μCi). The activity is assayed in the presence or absence of inhibitors, by measuring the incorporation of ^33P from [γ^33P] ATP into poly(Glu,Tyr) 4:1. The assay is carried out in 96-well plates at ambient temperature for 15 minutes under conditions described below and terminated by the addition of 20 μL of 125 mM EDTA. Subsequently, 40 μL of the reaction mixture are transferred onto Immobilon-PVDF membrane (Millipore) previously soaked for 5 minutes with methanol, rinsed with water, then soaked for 5 minutes with 0.5% H3PO4 and mounted on vacuum manifold with disconnected vacuum source. After spotting all samples, vacuum is connected and each well-rinsed with 200 μL 0.5% H3PO4. Membranes are removed and washed 4× on a shaker with 1.0% H3PO4, once with ethanol. Membranes are counted after drying at ambient temperature, mounting in Packard TopCount 96-well frame, and addition of 10 μL/well of Microscint™ (Packard). IC50 values are calculated by linear regression analysis of the percentage inhibition of each compound in duplicate, at 4 concentrations (usually 0.01, 0.1, 1 and 10 μM). […]

[2] = target: T2, c-Kit (Homo sapiens, UniProt P10721); assay: c-kit kinase inhibition; type: biochemical; settings: Table 4
T2 construct: whole cytoplasmic domain of c-Kit (aa 544-976); made in house; host or cells: Sf9 or High Five (baculovirus)
T2 sequence (P10721 544-976): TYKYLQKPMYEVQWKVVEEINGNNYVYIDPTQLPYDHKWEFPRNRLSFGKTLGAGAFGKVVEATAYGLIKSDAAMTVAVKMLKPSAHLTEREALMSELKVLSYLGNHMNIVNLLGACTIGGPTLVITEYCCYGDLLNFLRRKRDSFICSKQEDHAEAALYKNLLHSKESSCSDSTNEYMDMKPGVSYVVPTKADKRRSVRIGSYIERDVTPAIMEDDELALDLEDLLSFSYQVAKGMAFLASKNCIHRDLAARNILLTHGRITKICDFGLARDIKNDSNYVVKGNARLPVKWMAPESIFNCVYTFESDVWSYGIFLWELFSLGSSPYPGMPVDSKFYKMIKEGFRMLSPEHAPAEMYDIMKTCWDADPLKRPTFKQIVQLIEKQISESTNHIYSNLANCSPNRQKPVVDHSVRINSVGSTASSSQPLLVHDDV

T1 sequence (P07949 1-1072 isoform P07949-2): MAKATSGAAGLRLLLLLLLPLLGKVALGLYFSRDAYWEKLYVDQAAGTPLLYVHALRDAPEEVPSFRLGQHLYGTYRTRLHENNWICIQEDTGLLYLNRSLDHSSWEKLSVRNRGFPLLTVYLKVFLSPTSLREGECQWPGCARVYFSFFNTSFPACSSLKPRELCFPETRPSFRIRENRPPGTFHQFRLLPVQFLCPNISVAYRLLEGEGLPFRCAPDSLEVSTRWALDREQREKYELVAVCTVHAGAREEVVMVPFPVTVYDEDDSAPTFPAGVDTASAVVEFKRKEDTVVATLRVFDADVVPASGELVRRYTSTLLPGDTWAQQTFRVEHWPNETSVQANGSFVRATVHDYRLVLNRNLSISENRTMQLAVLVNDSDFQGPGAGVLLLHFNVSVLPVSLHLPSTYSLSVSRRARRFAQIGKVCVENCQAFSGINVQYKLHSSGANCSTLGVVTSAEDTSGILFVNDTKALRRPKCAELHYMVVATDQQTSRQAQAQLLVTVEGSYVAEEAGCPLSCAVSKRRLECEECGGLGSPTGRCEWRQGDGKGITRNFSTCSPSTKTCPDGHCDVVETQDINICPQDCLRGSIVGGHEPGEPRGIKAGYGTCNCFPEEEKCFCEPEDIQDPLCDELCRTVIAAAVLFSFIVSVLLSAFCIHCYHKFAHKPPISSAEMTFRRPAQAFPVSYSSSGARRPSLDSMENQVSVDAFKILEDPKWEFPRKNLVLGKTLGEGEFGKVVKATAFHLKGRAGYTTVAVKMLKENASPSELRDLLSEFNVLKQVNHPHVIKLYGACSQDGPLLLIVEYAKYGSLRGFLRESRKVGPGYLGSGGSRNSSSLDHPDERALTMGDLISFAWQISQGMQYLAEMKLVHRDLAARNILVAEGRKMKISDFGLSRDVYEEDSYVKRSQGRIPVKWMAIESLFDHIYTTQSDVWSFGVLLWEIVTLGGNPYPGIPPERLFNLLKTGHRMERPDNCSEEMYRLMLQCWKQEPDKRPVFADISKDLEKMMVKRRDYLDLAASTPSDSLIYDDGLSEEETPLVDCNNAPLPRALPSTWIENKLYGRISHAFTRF

| SMILES | IC50 [1] [µM] | IC50 [2] [µM] |
| --- | --- | --- |
| CN1CCN(c2cccc(-c3cnn4c(N)c(-c5ccc(O)cc5)cnc34)c2)CC1 [Example 39, 4-{7-Amino-3-[3-(4-methyl-piperazin-1-yl)-phenyl]-pyrazolo[1,5-a]pyrimidin-6-yl}-phenol] | < 10 | – |
| COc1ccccc1-c1cnn2c(N)c(-c3cccc(O)c3)cnc12 [Example 48, 3-[7-Amino-3-(2-methoxy-phenyl)-pyrazolo[1,5-a]pyrimidin-6-yl]-phenol] | < 10 | – |
| CN1CCN(c2ccc(-c3cnn4c(N)c(-c5cccc(O)c5)cnc34)cc2)CC1 [Example 1, 3-{7-Amino-3-[4-(4-methyl-piperazin-1-yl)-phenyl]-pyrazolo[1,5-a]pyrimidin-6-yl}-phenol] | < 10 | < 10 |
| CN1CCN(c2cccc(-c3cnn4c(N)c(-c5cccc(O)c5)cnc34)c2)CC1 [Example 29, 3-{7-Amino-3-[3-(4-methyl-piperazin-1-yl)-phenyl]-pyrazolo[1,5-a]pyrimidin-6-yl}-phenol] | < 10 | – |
